From the RepoRT retention time repository

Assay: HILIC, Waters Atlantis Premier BEH Z-HILIC, 100 × 2.1 mm, 1.7 µm, 40 °C, 0.16 mL/min, estimated dead time 1.4 min; A: water + 20 mM ammonium carbonate + 5 µM medronic acid; B: 10% water + 90% acetonitrile + 2 mM ammonium carbonate + 0.5 µM medronic acid; gradient (min/%B) 0/97 18/55 18.1/20 21.5/20 22/97 23.5/97 25.5/97
Conditions: stereoisomer not certain

SMILES | LC retention time [min]
O=P(O)(O)OCC1OC(O)(COP(=O)(O)O)C(O)C1O (configuration not stated) [Fructose-1,6-bisphosphate] | 15.5
NC(=O)CCC(N)C(=O)O (configuration not stated) [Glutamine] | 10.6
O=P(O)(O)OCC1OC(O)C(O)C(O)C1O (configuration not stated) [Glucose-6-phosphate] | 12.5
NC(=O)c1ccc[n+](C2OC(COP(=O)(O)OP(=O)(O)OCC3OC(n4cnc5c(N)ncnc54)C(OP(=O)(O)O)C3O)C(O)C2O)c1 (configuration not stated) [NADP] | 13.3
CC(=O)NC1C(OP(=O)(O)OP(=O)(O)OCC2OC(n3ccc(=O)[nH]c3=O)C(O)C2O)OC(CO)C(O)C1O (configuration not stated) [UDP-GlcNAc] | 10.1
O=C(O)CC(O)(CC(=O)O)C(=O)O [Citric acid] | 13.7
Nc1ncnc2c1ncn2C1OC(COP(=O)(O)OP(=O)(O)O)C(O)C1O (configuration not stated) [ADP] | 11.6
CCC(C)C(N)C(=O)O (configuration not stated) [Isoleucine] | 6.73
NC(=O)c1ccc[n+](C2OC(COP(=O)(O)OP(=O)(O)OCC3OC(n4cnc5c(N)ncnc54)C(O)C3O)C(O)C2O)c1 (configuration not stated) [NAD] | 10.5
Nc1ncnc2c1ncn2C1OC(CO)C(O)C1O (configuration not stated) [Adenosine] | 4.45
O=C(O)C(CO)OP(=O)(O)O (configuration not stated) [Phosphoglyceric acid A] | 12.6
O=P(O)(O)OCC(O)CO (configuration not stated) [Glycerol-3-phosphate] | 10.6
O=C1CC(C(=O)O)NC(=O)N1 (configuration not stated) [dihydroorotic acid] | 4.6
CCC(=O)OC(CC(=O)[O-])C[N+](C)(C)C (configuration not stated) [carnitine-C3] | 6.89
Nc1nc2c(ncn2C2OC(COP(=O)(O)OP(=O)(O)OP(=O)(O)O)C(O)C2O)c(=O)[nH]1 (configuration not stated) [GTP] | 15.7
O=C(O)CC(C(=O)O)C(O)C(=O)O (configuration not stated) [Isocitric acid] | 13.6
Nc1ncnc2c1ncn2C1OC(COP(=O)(O)O)C(O)C1O (configuration not stated) [AMP] | 9.68
O=C(O)CCCCC1SCC2NC(=O)NC21 (configuration not stated) [Biotin] | 4.62
O=C(CO)C(O)C(O)C(O)COP(=O)(O)O (configuration not stated) [Fructose 6-phosphate] | 11.5

SMILES | LC retention time [min]
CC(C)(COP(=O)(O)OP(=O)(O)OCC1OC(n2cnc3c(N)ncnc32)C(O)C1OP(=O)(O)O)C(O)C(=O)NCCC(=O)NCCS (configuration not stated) [CoenzymeA] | 12
CC(O)C(=O)O (configuration not stated) [Lactic Acid] | 3.29
C=C(OP(=O)(O)O)C(=O)O [PEP] | 13.4
OCC1OC(O)C(O)C(O)C1O (configuration not stated) [Hexose] | 7.87
Cc1cc2nc3c(=O)[nH]c(=O)nc-3n(CC(O)C(O)C(O)COP(=O)(O)OP(=O)(O)OCC3OC(n4cnc5c(N)ncnc54)C(O)C3O)c2cc1C (configuration not stated) [FAD] | 7.63
Nc1ncnc2c1ncn2C1OC(COP(=O)(O)OP(=O)(O)OP(=O)(O)O)C(O)C1O (configuration not stated) [ATP] | 13.3
NC(=O)C1=CN(C2OC(COP(=O)(O)OP(=O)(O)OCC3OC(n4cnc5c(N)ncnc54)C(O)C3O)C(O)C2O)C=CC1 (configuration not stated) [NADH] | 8.9
O=C(O)CCC(O)C(=O)O (configuration not stated) [2-hydroxy glutaric acid] | 9.7
CC(C)CC(N)C(=O)O (configuration not stated) [Leucine] | 6.36
O=C(CO)COP(=O)(O)O [Triose phosphate] | 10.4
O=C(O)CCC(=O)O [Succinic Acid] | 9.71
O=C(O)CCC(=O)C(=O)O [2-Oxoglutaric acid] | 9.15
NC(CCC(=O)O)C(=O)O (configuration not stated) [Glutamic acid] | 9.93
C[N+](C)(C)CC(O)CC(=O)[O-] (configuration not stated) [Carnitine] | 10.1
NC(N)=NCCCC(N)C(=O)O (configuration not stated) [Arginine] | 19.2
NCCCCC(N)C(=O)O (configuration not stated) [Lysine] | 19.4
CC(=O)SCCNC(=O)CCNC(=O)C(O)C(C)(C)COP(=O)(O)OP(=O)(O)OCC1OC(n2cnc3c(N)ncnc32)C(O)C1OP(=O)(O)O (configuration not stated) [Acetyl-CoA] | 10.4
NC(=O)C1=CN(C2OC(COP(=O)(O)OP(=O)(O)OCC3OC(n4cnc5c(N)ncnc54)C(OP(=O)(O)O)C3O)C(O)C2O)C=CC1 (configuration not stated) [NADPH] | 13.8
